Tests used:
[1] = biological target: T1, human orexin-1 receptor (Homo sapiens, UniProt O43613); assay: Intracellular calcium measurement (FLIPR Tetra), orexin receptor antagonistic activity, OX1; type: cell-based; conditions: CHO cells expressing human orexin-1 receptor, 3 nM orexin-A, conditions B
T1 construct: expressed in transfected cells; host or cells: CHO (Chinese hamster ovary) cells, kept under G418 selection
T1 sequence (O43613 1-425): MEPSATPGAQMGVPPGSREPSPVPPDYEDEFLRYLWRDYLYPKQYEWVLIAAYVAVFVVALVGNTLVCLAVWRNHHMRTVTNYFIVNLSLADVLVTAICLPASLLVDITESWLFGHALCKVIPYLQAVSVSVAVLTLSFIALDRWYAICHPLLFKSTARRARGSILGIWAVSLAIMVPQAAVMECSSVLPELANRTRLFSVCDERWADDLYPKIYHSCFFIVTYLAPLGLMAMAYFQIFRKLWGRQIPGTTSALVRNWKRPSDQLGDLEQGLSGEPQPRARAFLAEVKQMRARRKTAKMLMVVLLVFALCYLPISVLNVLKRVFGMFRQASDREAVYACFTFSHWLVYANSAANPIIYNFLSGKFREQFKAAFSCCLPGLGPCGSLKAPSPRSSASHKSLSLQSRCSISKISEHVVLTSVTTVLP
Protocol: (§1) The orexin receptor antagonistic activity of the compounds of formula (I) is determined in accordance with one of the following experimental methods.
(§2) Chinese hamster ovary (CHO) cells expressing the human orexin-1 receptor and the human orexin-2 receptor, respectively, are grown in culture medium (Ham F-12 with L-Glutamine) containing 300 μg/ml G418, 100 U/ml penicillin, 100 μg/ml streptomycin and 10% heat inactivated fetal calf serum (FCS). The cells are seeded at 20,000 cells/well into 384-well black clear bottom sterile plates (Greiner). The seeded plates are incubated overnight at 37° C. in 5% CO2.
(§3) Human orexin-A as an agonist is prepared as 1 mM stock solution in MeOH:water (1:1), diluted in HBSS containing 0.1% bovine serum albumin (BSA), NaHCO3: 0.375 g/l and 20 mM HEPES for use in the assay at a final concentration of 3 nM. Antagonists are prepared as 10 mM stock solution in DMSO, then diluted in 384-well plates, first in DMSO, then in HBSS containing 0.1% bovine serum albumin (BSA), NaHCO3: 0.375 g/l and 20 mM HEPES.
(§4) On the day of the assay, 50 μl of staining buffer (HBSS containing 1% FCS, 20 mM HEPES, NaHCO3: 0.375 g/l, 5 mM probenecid (Sigma) and 3 μM of the fluorescent calcium indicator fluo-4 AM (1 mM stock solution in DMSO, containing 10% pluronic) is added to each well.
(§5) The 384-well cell-plates are incubated for 50 min at 37° C. in 5% CO2 followed by equilibration at RT for 30-120 min before measurement.
(§6) Within the Fluorescent Imaging Plate Reader (FLIPR Tetra, Molecular Devices), antagonists are added to the plate in a volume of 10 μl/well, incubated for 10 min and finally 10 μl/well of agonist is added. Fluorescence is measured for each well at 1 second intervals, and the height of each fluorescence peak is compared to the height of the fluorescence peak induced by 3 nM orexin-A with vehicle in place of antagonist. For each antagonist, the IC50 value (the concentration of compound needed to inhibit 50% of the agonistic response) is determined and may be normalized using the obtained IC50 value of a on-plate reference compound (normalized values in Table 1 are indicated by an asterisk *). With the FLIPR Tetra, two different conditions (conditions A and conditions B) were used, differing in adjustment of pipetting speed and cell splitting regime. The calculated IC50 values of the compounds may fluctuate depending on the daily cellular assay performance. Fluctuations of this kind are known to those skilled in the art.

[2] = biological target: T2, human orexin-2 receptor (Homo sapiens, UniProt O43614); assay: Intracellular calcium measurement (FLIPR Tetra), orexin receptor antagonistic activity, OX2; type: cell-based; conditions: CHO cells expressing human orexin-2 receptor, 3 nM orexin-A, conditions B
T2 construct: expressed in transfected cells; host or cells: CHO (Chinese hamster ovary) cells, kept under G418 selection
T2 sequence (O43614 1-444): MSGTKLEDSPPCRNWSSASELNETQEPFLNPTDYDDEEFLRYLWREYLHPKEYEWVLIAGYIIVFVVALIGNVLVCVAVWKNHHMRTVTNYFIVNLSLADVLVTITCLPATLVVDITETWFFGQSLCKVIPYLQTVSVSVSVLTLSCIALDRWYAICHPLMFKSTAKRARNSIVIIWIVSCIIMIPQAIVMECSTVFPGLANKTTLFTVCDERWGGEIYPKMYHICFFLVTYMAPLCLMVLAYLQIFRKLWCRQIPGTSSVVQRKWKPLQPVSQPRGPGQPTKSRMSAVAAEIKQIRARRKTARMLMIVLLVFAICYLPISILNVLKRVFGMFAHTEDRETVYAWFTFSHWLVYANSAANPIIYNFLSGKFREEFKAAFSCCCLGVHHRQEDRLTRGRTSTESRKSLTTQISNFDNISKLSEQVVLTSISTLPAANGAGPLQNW
Protocol: as §1, §2, §3, §4, §5, §6

Compound	IC50 [1] [nM]	IC50 [2] [nM]
COc1ccc(CCN(C)C(=O)c2nc(N)sc2-c2cccc(C)c2)cc1OC [Example 104, 2-Amino-5-m-tolyl-thiazole-4-carboxylic acid [2-(3,4-dimethoxy-phenyl)-ethyl]-methyl-amide]	405	5
CCN(CCc1ccc(OC)c(OC)c1)C(=O)c1nc(N)sc1-c1cccc(C)c1 [Example 107, 2-Amino-5-m-tolyl-thiazole-4-carboxylic acid [2-(3,4-dimethoxy-phenyl)-ethyl]-ethyl-amide]	41	2
CCN(CCc1ccc(OC)c(OC)c1)C(=O)c1nc(C)sc1-c1ccc(C)c(C)c1 [Example 108, 5-(3,4-Dimethyl-phenyl)-2-methyl-thiazole-4-carboxylic acid [2-(3,4-dimethoxy-phenyl)-ethyl]-ethyl-amide]	36	5
CCCN(CCc1ccc(OC)c(OC)c1)C(=O)c1nc(C)sc1-c1cccc(F)c1 [Example 109, 5-(3-Fluoro-phenyl)-2-methyl-thiazole-4-carboxylic acid [2-(3,4-dimethoxy-phenyl)-ethyl]-propyl-amide]	479	6
CCCN(CCc1ccc(OC)c(OC)c1)C(=O)c1nc(C)sc1-c1ccc(C)c(C)c1 [Example 111, 5-(3,4-Dimethyl-phenyl)-2-methyl-thiazole-4-carboxylic acid [2-(3,4-dimethoxy-phenyl)-ethyl]-propyl-amide]	18	2
COc1ccc(CCN(CC(C)C)C(=O)c2nc(N)sc2-c2cccc(C)c2)cc1OC [Example 113, 2-Amino-5-m-tolyl-thiazole-4-carboxylic acid [2-(3,4-dimethoxy-phenyl)-ethyl]-isobutyl-amide]	328	8
COc1ccc(CCN(CC(F)(F)F)C(=O)c2nc(N)sc2-c2cccc(C)c2)cc1OC [Example 119, 2-Amino-5-m-tolyl-thiazole-4-carboxylic acid [2-(3,4-dimethoxy-phenyl)-ethyl]-(2,2,2-trifluoro-ethyl)-amide]	149	4
COc1ccc(CCN(C(=O)c2nc(C)sc2-c2ccc(C)c(C)c2)C2CC2)cc1OC [Example 123, 5-(3,4-Dimethyl-phenyl)-2-methyl-thiazole-4-carboxylic acid cyclopropyl-[2-(3,4-dimethoxy-phenyl)-ethyl]-amide]	26	4
COCCN(CCc1ccc(OC)c(OC)c1)C(=O)c1nc(C)sc1-c1cccc(F)c1 [Example 127, 5-(3-Fluoro-phenyl)-2-methyl-thiazole-4-carboxylic acid [2-(3,4-dimethoxy-phenyl)-ethyl]-(2-methoxy-ethyl)-amide]	1120	16
COCCN(CCc1ccc(OC)c(OC)c1)C(=O)c1nc(C)sc1-c1ccc(C)c(C)c1 [Example 129, 5-(3,4-Dimethyl-phenyl)-2-methyl-thiazole-4-carboxylic acid [2-(3,4-dimethoxy-phenyl)-ethyl]-(2-methoxy-ethyl)-amide]	40	5
COc1ccc(CCN(CCN(C)C)C(=O)c2nc(N)sc2-c2cccc(C)c2)cc1OC [Example 130, 2-Amino-5-m-tolyl-thiazole-4-carboxylic acid [2-(3,4-dimethoxy-phenyl)-ethyl]-(2-dimethylamino-ethyl)-amide]	> 10000	279
COc1ccc(CCN(CC(N)=O)C(=O)c2nc(C)sc2-c2cccc(F)c2)cc1OC [Example 131, 5-(3-Fluoro-phenyl)-2-methyl-thiazole-4-carboxylic acid carbamoylmethyl-[2-(3,4-dimethoxy-phenyl)-ethyl]-amide]	> 10000	49
COc1ccc(CCN(CC(=O)N(C)C)C(=O)c2nc(N)sc2-c2cccc(C)c2)cc1OC [Example 135, 2-Amino-5-m-tolyl-thiazole-4-carboxylic acid [2-(3,4-dimethoxy-phenyl)-ethyl]-dimethylcarbamoylmethyl-amide]	> 10000	145
COc1ccc(CCN(CC2CC2)C(=O)c2nc(N)sc2-c2cccc(C)c2)cc1SC [Example 161, 2-Amino-5-m-tolyl-thiazole-4-carboxylic acid cyclopropylmethyl-[2-(4-methoxy-3-methylsulfanyl-phenyl)-ethyl]-amide]	10	6

Next, values leading:

IC50 [1] [nM]	IC50 [2] [nM]	Compound
21	2	CCCN(CCc1ccc(OC)c(OC)c1)C(=O)c1nc(N)sc1-c1cccc(C)c1 [Example 110, 2-Amino-5-m-tolyl-thiazole-4-carboxylic acid [2-(3,4-dimethoxy-phenyl)-ethyl]-propyl-amide]
119	6	COc1ccc(CCN(CC(F)(F)F)C(=O)c2nc(C)sc2-c2ccc(C)c(C)c2)cc1OC [Example 120, 5-(3,4-Dimethyl-phenyl)-2-methyl-thiazole-4-carboxylic acid [2-(3,4-dimethoxy-phenyl)-ethyl]-(2,2,2-trifluoro-ethyl)-amide]
15	2	COc1ccc(CCN(C(=O)c2nc(N)sc2-c2cccc(C)c2)C2CC2)cc1OC [Example 122, 2-Amino-5-m-tolyl-thiazole-4-carboxylic acid cyclopropyl-[2-(3,4-dimethoxy-phenyl)-ethyl]-amide]
1470	82	COc1ccc(CCN(CCO)C(=O)c2nc(C)sc2-c2cccc(F)c2)cc1OC [Example 124, 5-(3-Fluoro-phenyl)-2-methyl-thiazole-4-carboxylic acid [2-(3,4-dimethoxy-phenyl)-ethyl]-(2-hydroxy-ethyl)-amide]
170	4	COc1ccc(CCN(CCO)C(=O)c2nc(C)sc2-c2ccc(C)c(C)c2)cc1OC [Example 126, 5-(3,4-Dimethyl-phenyl)-2-methyl-thiazole-4-carboxylic acid [2-(3,4-dimethoxy-phenyl)-ethyl]-(2-hydroxy-ethyl)-amide]
71	4	COCCN(CCc1ccc(OC)c(OC)c1)C(=O)c1nc(N)sc1-c1cccc(C)c1 [Example 128, 2-Amino-5-m-tolyl-thiazole-4-carboxylic acid [2-(3,4-dimethoxy-phenyl)-ethyl]-(2-methoxy-ethyl)-amide]
8510	745	Cc1cccc(-c2sc(N)nc2C(=O)N(CCc2ccc3c(c2)OC(F)(F)O3)CC2CC2)c1 [Example 157, 2-Amino-5-m-tolyl-thiazole-4-carboxylic acid cyclopropylmethyl-[2-(2,2-difluoro-benzo[1,3]dioxol-5-yl)-ethyl]-amide]
81	18	COc1ccc(CCN(CC2CC2)C(=O)c2nc(N)sc2-c2cccc(C)c2)cc1Br [Example 163, 2-Amino-5-m-tolyl-thiazole-4-carboxylic acid [2-(3-bromo-4-methoxy-phenyl)-ethyl]-cyclopropylmethyl-amide]
